Assay results as given in PubChem BioAssay (NCI).
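GI50 = concentration required for 50% inhibition of growth. The concentration for full growth arrest is given as TGI.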

Tests used:
Experiment in all cases: NCI anticancer screen, dose series, 384-well format
A498 renal = test system: A498 renal
IGROV1 ovarian = test system: IGROV1 ovarian
HOP-92 NSCLC = test system: HOP-92 NSCLC
OVCAR-3 ovarian = test system: OVCAR-3 ovarian
MDA-MB-468 breast = test system: MDA-MB-468 breast
ACHN renal = test system: ACHN renal
NCI-H23 lung = test system: NCI-H23 lung
T-47D breast = test system: T-47D breast
UACC-257 melanoma = test system: UACC-257 melanoma
BT-549 breast = test system: BT-549 breast
HL-60(TB) leukemia = test system: HL-60(TB) leukemia
HCT-116 colon = test system: HCT-116 colon
CAKI-1 renal = test system: CAKI-1 renal
CCRF-CEM leukemia = test system: CCRF-CEM leukemia
SF-539 CNS = test system: SF-539 CNS
HCC-2998 colon = test system: HCC-2998 colon
HS 578T breast = test system: HS 578T breast
LOX IMVI melanoma = test system: LOX IMVI melanoma
OVCAR-4 ovarian = test system: OVCAR-4 ovarian
COLO 205 colon = test system: COLO 205 colon
SK-OV-3 ovarian = test system: SK-OV-3 ovarian
DU-145 prostate = test system: DU-145 prostate
NCI-H460 NSCLC = test system: NCI-H460 NSCLC
SF-268 CNS = test system: SF-268 CNS
SN12C renal = test system: SN12C renal
UACC-62 melanoma = test system: UACC-62 melanoma
NCI/ADR-RES ovarian = test system: NCI/ADR-RES ovarian
MCF7 breast = test system: MCF7 breast
HT29 colon = test system: HT29 colon
HOP-62 NSCLC = test system: HOP-62 NSCLC
SK-MEL-5 melanoma = test system: SK-MEL-5 melanoma
TK-10 renal = test system: TK-10 renal
SNB-75 CNS = test system: SNB-75 CNS
MDA-MB-231 breast = test system: MDA-MB-231 breast
SW-620 colon = test system: SW-620 colon
NCI-H522 lung = test system: NCI-H522 lung
M14 melanoma = test system: M14 melanoma
SK-MEL-28 melanoma = test system: SK-MEL-28 melanoma
EKVX NSCLC = test system: EKVX NSCLC
SNB-19 CNS = test system: SNB-19 CNS
K-562 leukemia = test system: K-562 leukemia
U251 glioblastoma = test system: U251 glioblastoma
NCI-H226 lung = test system: NCI-H226 lung
A549 NSCLC = test system: A549 NSCLC
RPMI-8226 leukemia = test system: RPMI-8226 leukemia
UO-31 renal = test system: UO-31 renal
KM12 colon = test system: KM12 colon
786-0 renal = test system: 786-0 renal
OVCAR-8 ovarian = test system: OVCAR-8 ovarian
PC-3 prostate = test system: PC-3 prostate
RXF 393 renal = test system: RXF 393 renal
MOLT-4 leukemia = test system: MOLT-4 leukemia
HCT-15 colon = test system: HCT-15 colon
SF-295 CNS = test system: SF-295 CNS
NCI-H322M lung = test system: NCI-H322M lung
MDA-MB-435 melanoma = test system: MDA-MB-435 melanoma
MALME-3M melanoma = test system: MALME-3M melanoma

## Cc1ccc2c(=O)c3cccc(CC(=O)O)c3oc2c1C
A498 renal
  GI50: > 100 µM
  TGI: > 100 µM
IGROV1 ovarian
  GI50: > 100 µM
  TGI: > 100 µM
HOP-92 NSCLC
  GI50: > 100 µM
  TGI: > 100 µM
OVCAR-3 ovarian
  GI50: > 100 µM
  TGI: > 100 µM
MDA-MB-468 breast
  GI50: > 100 µM
  TGI: > 100 µM
ACHN renal
  GI50: > 100 µM
  TGI: > 100 µM
NCI-H23 lung
  GI50: > 100 µM
  TGI: > 100 µM
T-47D breast
  GI50: > 100 µM
  TGI: > 100 µM
UACC-257 melanoma
  GI50: > 100 µM
  TGI: > 100 µM
BT-549 breast
  GI50: > 100 µM
  TGI: > 100 µM
HL-60(TB) leukemia
  GI50: > 100 µM
  TGI: > 100 µM
HCT-116 colon
  GI50: > 100 µM
  TGI: > 100 µM
CAKI-1 renal
  GI50: > 100 µM
  TGI: > 100 µM
CCRF-CEM leukemia
  GI50: > 100 µM
  TGI: > 100 µM
SF-539 CNS
  GI50: > 100 µM
  TGI: > 100 µM
HCC-2998 colon
  GI50: > 100 µM
  TGI: > 100 µM
HS 578T breast
  GI50: > 100 µM
  TGI: > 100 µM
LOX IMVI melanoma
  GI50: > 100 µM
  TGI: > 100 µM
OVCAR-4 ovarian
  GI50: > 100 µM
  TGI: > 100 µM
COLO 205 colon
  GI50: > 100 µM
  TGI: > 100 µM
SK-OV-3 ovarian
  GI50: > 100 µM
  TGI: > 100 µM
DU-145 prostate
  GI50: > 100 µM
  TGI: > 100 µM
NCI-H460 NSCLC
  GI50: > 100 µM
  TGI: > 100 µM
SF-268 CNS
  GI50: > 100 µM
  TGI: > 100 µM
SN12C renal
  GI50: > 100 µM
  TGI: > 100 µM
UACC-62 melanoma
  GI50: > 100 µM
  TGI: > 100 µM
NCI/ADR-RES ovarian
  GI50: > 100 µM
  TGI: > 100 µM
MCF7 breast
  GI50: > 100 µM
  TGI: > 100 µM
HT29 colon
  GI50: > 100 µM
  TGI: > 100 µM
HOP-62 NSCLC
  GI50: > 100 µM
  TGI: > 100 µM
SK-MEL-5 melanoma
  GI50: > 100 µM
  TGI: > 100 µM
TK-10 renal
  GI50: > 100 µM
  TGI: > 100 µM
SNB-75 CNS
  GI50: > 100 µM
  TGI: > 100 µM
MDA-MB-231 breast
  GI50: > 100 µM
  TGI: > 100 µM
SW-620 colon
  GI50: > 100 µM
  TGI: > 100 µM
NCI-H522 lung
  GI50: > 100 µM
  TGI: > 100 µM
M14 melanoma
  GI50: > 100 µM
  TGI: > 100 µM
SK-MEL-28 melanoma
  GI50: > 100 µM
  TGI: > 100 µM
EKVX NSCLC
  GI50: > 100 µM
  TGI: > 100 µM
SNB-19 CNS
  GI50: > 100 µM
  TGI: > 100 µM
K-562 leukemia
  GI50: > 100 µM
  TGI: > 100 µM
U251 glioblastoma
  GI50: > 100 µM
  TGI: > 100 µM
NCI-H226 lung
  GI50: > 100 µM
  TGI: > 100 µM
A549 NSCLC
  GI50: > 100 µM
  TGI: > 100 µM
RPMI-8226 leukemia
  GI50: > 100 µM
  TGI: > 100 µM
UO-31 renal
  GI50: > 100 µM
  TGI: > 100 µM
KM12 colon
  GI50: > 100 µM
  TGI: > 100 µM
786-0 renal
  GI50: > 100 µM
  TGI: > 100 µM
OVCAR-8 ovarian
  GI50: > 100 µM
  TGI: > 100 µM
PC-3 prostate
  GI50: > 100 µM
  TGI: > 100 µM
RXF 393 renal
  GI50: > 100 µM
  TGI: > 100 µM
MOLT-4 leukemia
  GI50: > 100 µM
  TGI: > 100 µM
HCT-15 colon
  GI50: > 100 µM
  TGI: > 100 µM
SF-295 CNS
  GI50: > 100 µM
  TGI: > 100 µM
NCI-H322M lung
  GI50: > 100 µM
  TGI: > 100 µM
MDA-MB-435 melanoma
  GI50: > 100 µM
  TGI: > 100 µM
MALME-3M melanoma
  GI50: > 100 µM
  TGI: > 100 µM
